13 molecules from patent US11739098B2 (BRISTOL-MYERS SQUIBB COMPANY, priority 2017, dated 2023) can be followed below.

What all share (assay type): cell-based
For one experiment, the target named is T1, human TLR7 (Homo sapiens, UniProt Q9NYK1).
T1 construct: host or cells: HEK-Blue cells (HEK293-derived reporter line)
T1 sequence (Q9NYK1 27-1049): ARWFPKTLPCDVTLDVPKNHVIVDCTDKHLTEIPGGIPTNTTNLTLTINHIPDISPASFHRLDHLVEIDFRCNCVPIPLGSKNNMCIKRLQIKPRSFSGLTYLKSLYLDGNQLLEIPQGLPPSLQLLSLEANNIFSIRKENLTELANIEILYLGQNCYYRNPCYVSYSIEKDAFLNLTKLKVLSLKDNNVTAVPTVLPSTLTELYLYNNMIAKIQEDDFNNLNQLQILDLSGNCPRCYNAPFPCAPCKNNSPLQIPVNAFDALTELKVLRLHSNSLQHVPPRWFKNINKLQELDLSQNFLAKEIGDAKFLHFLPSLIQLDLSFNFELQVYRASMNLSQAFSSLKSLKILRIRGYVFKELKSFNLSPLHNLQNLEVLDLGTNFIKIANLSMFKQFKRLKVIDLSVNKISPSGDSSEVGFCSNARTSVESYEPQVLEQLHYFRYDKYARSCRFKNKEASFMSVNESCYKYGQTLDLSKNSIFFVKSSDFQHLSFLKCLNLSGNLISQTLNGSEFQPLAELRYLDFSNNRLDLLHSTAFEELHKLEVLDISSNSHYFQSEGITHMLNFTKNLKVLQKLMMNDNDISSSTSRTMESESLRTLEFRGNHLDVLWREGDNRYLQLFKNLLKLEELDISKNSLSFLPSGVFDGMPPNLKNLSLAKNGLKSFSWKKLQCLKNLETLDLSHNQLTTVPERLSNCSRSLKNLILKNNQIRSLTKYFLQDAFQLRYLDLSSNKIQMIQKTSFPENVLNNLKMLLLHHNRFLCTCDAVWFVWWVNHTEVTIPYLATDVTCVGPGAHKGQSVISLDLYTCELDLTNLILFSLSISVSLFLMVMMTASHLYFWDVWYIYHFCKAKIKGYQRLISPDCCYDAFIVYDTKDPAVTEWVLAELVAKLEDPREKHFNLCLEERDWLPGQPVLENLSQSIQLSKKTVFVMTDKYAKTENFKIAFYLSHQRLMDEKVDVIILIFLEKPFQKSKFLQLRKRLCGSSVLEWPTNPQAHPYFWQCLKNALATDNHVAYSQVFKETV
The experiment is described as follows: TLR7 inhibition reporter assay (HEK-Blue cells, SEAP reporter, gardiquimod stimulation). The following applies: HEK-Blue cells overexpressing human TLR7, SEAP reporter, gardiquimod 7.5 μM. Summed up:
(§1)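 Percent inhibition of agonist-induced SEAP secretion in HEK-Blue cells after 22 h at 37 °C. Stimuli: 7.5 μM gardiquimod, 15.9 μM R848, 5 nM ODN2006 for TLR7, TLR8 and TLR9, added after 30 min compound exposure over a 0.05 nM–50 μM range.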
(Reporter assays use an easily measured gene product as a stand-in for the process of interest.)

Another experiment addresses T2, human TLR8 (Homo sapiens, UniProt Q9NR97).
T2 construct: host or cells: HEK-Blue cells (HEK293-derived reporter line)
T2 sequence (Q9NR97 27-1041): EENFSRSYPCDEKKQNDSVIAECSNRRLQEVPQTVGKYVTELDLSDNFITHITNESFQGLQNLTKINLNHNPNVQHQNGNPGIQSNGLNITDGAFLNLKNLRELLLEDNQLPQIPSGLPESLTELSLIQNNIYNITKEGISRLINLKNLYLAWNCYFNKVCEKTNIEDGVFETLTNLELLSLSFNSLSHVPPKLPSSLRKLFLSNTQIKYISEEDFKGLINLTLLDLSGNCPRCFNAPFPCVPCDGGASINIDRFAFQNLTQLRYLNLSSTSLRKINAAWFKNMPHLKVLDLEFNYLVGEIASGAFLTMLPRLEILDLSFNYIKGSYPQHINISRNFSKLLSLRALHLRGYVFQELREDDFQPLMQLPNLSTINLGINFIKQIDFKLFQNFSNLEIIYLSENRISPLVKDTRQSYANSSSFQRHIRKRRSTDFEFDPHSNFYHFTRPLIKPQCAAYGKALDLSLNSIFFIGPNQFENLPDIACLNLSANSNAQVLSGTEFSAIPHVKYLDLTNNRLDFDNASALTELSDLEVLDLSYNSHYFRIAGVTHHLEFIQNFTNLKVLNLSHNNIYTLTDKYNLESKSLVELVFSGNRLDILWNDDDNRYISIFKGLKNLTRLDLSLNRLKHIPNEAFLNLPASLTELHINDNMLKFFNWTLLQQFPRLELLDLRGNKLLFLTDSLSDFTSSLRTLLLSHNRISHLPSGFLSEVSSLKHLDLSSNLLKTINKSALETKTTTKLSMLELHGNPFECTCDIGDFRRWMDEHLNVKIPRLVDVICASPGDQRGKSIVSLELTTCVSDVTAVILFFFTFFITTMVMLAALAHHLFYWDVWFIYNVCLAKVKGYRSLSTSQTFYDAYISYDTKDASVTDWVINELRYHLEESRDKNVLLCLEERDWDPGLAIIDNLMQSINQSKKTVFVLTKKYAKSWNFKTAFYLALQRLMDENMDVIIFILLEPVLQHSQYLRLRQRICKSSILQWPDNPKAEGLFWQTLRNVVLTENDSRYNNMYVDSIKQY
The experiment can be described thus: TLR8 inhibition reporter assay (HEK-Blue cells, SEAP reporter, R848 stimulation). The following applies: HEK-Blue cells overexpressing human TLR8, SEAP reporter, R848 15.9 μM. In outline: as §1

The target in another experiment is T3, human TLR9 (Homo sapiens, UniProt Q9NR96).
T3 construct: host or cells: HEK-Blue cells (HEK293-derived reporter line)
T3 sequence (Q9NR96 26-1032): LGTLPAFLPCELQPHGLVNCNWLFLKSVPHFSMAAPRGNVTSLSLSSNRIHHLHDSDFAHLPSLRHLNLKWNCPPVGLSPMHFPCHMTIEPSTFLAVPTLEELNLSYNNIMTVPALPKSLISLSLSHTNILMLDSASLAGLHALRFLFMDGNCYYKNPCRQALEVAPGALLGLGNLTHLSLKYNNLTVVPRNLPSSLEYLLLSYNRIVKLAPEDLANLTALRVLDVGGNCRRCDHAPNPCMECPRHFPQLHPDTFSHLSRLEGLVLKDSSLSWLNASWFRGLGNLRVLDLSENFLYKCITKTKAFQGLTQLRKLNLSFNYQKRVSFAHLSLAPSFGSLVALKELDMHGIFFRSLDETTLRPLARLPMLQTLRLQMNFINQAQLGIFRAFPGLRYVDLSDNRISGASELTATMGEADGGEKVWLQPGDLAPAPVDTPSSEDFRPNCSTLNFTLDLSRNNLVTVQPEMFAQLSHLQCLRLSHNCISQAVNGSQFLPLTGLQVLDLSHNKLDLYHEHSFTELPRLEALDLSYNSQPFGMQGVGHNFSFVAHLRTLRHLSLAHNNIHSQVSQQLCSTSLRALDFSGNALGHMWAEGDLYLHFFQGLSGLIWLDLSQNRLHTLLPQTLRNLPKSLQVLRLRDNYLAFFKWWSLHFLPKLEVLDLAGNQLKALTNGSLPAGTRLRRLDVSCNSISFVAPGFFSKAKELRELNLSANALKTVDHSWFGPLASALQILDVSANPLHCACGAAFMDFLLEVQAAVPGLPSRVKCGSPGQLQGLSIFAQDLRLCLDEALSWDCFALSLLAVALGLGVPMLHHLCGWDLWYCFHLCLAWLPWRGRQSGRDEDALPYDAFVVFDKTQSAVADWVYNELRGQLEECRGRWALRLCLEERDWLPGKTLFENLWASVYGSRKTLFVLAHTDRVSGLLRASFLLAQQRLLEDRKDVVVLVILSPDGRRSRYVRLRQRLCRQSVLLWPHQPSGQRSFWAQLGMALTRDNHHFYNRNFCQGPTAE
The experiment can be described thus: TLR9 inhibition reporter assay (HEK-Blue cells, SEAP reporter, ODN2006 stimulation). The following applies: HEK-Blue cells overexpressing human TLR9, SEAP reporter, ODN2006 5 nM. Summed up: as §1

As for `Cc1cc2nnnn2cc1-c1[nH]c2ccc(C3CCN(C4CCOCC4)CC3)cc2c1C(C)C` [Example 699, 6-(3-isopropyl-5-(1-(tetrahydro-2H-pyran-4-yl)piperidin-4-yl)-1H-indol-2-yl)-7-methyltetrazolo[1,5-a]pyridine], the IC50 (usually the concentration at which inhibition is half-maximal) is < 100 nM against human TLR7, < 100 nM at human TLR8 and 1000 to 50000 nM against human TLR9.

For the molecule `Cc1nnn2ccc(-c3[nH]c4ccc(C5CCN(C6CCOCC6)CC5)cc4c3C(C)C)cc12` [Example 700, 5-(3-isopropyl-5-(1-(tetrahydro-2H-pyran-4-yl)piperidin-4-yl)-1H-indol-2-yl)-3-methyl-[1,2,3]triazolo[1,5-a]pyridine], the 50% inhibitory concentration (IC50) against human TLR7 is < 100 nM; at human TLR8 it was < 100 nM; at human TLR9, 100 to 1000 nM.

As for `CC(C)c1c(-c2ccn3nncc3c2)[nH]c2ccc(C3CCN(C4CCOCC4)CC3)cc12` [Example 701, 5-(3-isopropyl-5-(1-(tetrahydro-2H-pyran-4-yl)piperidin-4-yl)-1H-indol-2-yl)-[1,2,3]triazolo[1,5-a]pyridine], the IC50 is < 100 nM against human TLR7, < 100 nM on human TLR8 and 100 to 1000 nM at human TLR9.

Turning to `Cc1cc(-c2[nH]c3ccc(C4CCN(C5CCOCC5)CC4)cc3c2C(C)C)cc2cccnc12` [Example 703, 6-(3-isopropyl-5-(1-(tetrahydro-2H-pyran-4-yl)piperidin-4-yl)-1H-indol-2-yl)-8-methylquinoline], the values for the IC50 against human TLR7, at human TLR8 and against human TLR9 were < 100 nM, < 100 nM and 1000 to 50000 nM, respectively.

On to `Cc1cc(-c2[nH]c3ccc(C4CCN(C5CCOCC5)CC4)cc3c2C(C)C)cc2cccnc12` [Example 704, 6-(3-isopropyl-5-(1-(tetrahydro-2H-pyran-4-yl)piperidin-4-yl)-1H-indol-2-yl)-8-methylquinoline], for which the IC50 on human TLR7 was < 100 nM; against human TLR8 it was 100 to 1000 nM; on human TLR9 it was 1000 to 50000 nM.

As for `Cc1cc(-c2[nH]c3ccc(C4CCN(C5CCOCC5)CC4)cc3c2C(C)C)cn2ccnc12` [Example 705, 6-(3-isopropyl-5-(1-(tetrahydro-2H-pyran-4-yl)piperidin-4-yl)-1H-indol-2-yl)-8-methylimidazo[1,2-a]pyridine], the IC50 against human TLR7 is < 100 nM; against human TLR8, < 100 nM; against human TLR9 it was 100 to 1000 nM.

In the case of `COc1cc(-c2[nH]c3ccc(C4CCN(C5CCOCC5)CC4)cc3c2C(C)C)cn2ccnc12` [Example 706, 6-(3-isopropyl-5-(1-(tetrahydro-2H-pyran-4-yl)piperidin-4-yl)-1H-indol-2-yl)-8-methoxyimidazo[1,2-a]pyridine], the IC50 on human TLR7 was < 100 nM; on human TLR8, < 100 nM; against human TLR9, 100 to 1000 nM.

Take `Cc1cc(-c2[nH]c3ccc(C4CCN(C5CCOCC5)CC4)cc3c2C(C)C)cc2cncn12` [Example 707, 7-(3-isopropyl-5-(1-(tetrahydro-2H-pyran-4-yl)piperidin-4-yl)-1H-indol-2-yl)-5-methylimidazo[1,5-a]pyridine]: the IC50 was < 100 nM on human TLR7, < 100 nM against human TLR8 and 100 to 1000 nM on human TLR9.

As for `Cc1cc(-c2[nH]c3ccc(C4CCN(C5COC5)CC4)cc3c2C(C)C)cc2[nH]c(=O)oc12` [Example 708, 5-(3-isopropyl-5-(1-(oxetan-3-yl)piperidin-4-yl)-1H-indol-2-yl)-7-methylbenzo[d]oxazol-2(3H)-one], the IC50 against human TLR7 lay within 100 to 1000 nM; at human TLR8, 100 to 1000 nM; against human TLR9, 1000 to 50000 nM.

Turning to `Cc1nc2cc(-c3[nH]c4ccc(C5CCN(C6COC6)CC5)cc4c3C(C)C)cc(C)c2o1` [Example 709, 5-(3-isopropyl-5-(1-(oxetan-3-yl)piperidin-4-yl)-1H-indol-2-yl)-2,7-dimethylbenzo[d]oxazole], the values for the IC50 against human TLR7, against human TLR8 and against human TLR9 were 100 to 1000 nM, 1000 to 50000 nM and 1000 to 50000 nM, respectively.

For the molecule `COc1cc(-c2[nH]c3ccc(C4CCN(C5COC5)CC4)cc3c2C(C)C)cc2ncnn12` [Example 710, 7-(3-isopropyl-5-(1-(oxetan-3-yl)piperidin-4-yl)-1H-indol-2-yl)-5-methoxy-[1,2,4]triazolo[1,5-a]pyridine], the figures for the IC50 on human TLR7, against human TLR8 and against human TLR9 were < 100 nM, < 100 nM and 1000 to 50000 nM, respectively.

In the case of `Cc1cc(-c2[nH]c3ccc(C4CCN(C5COC5)CC4)cc3c2C(C)C)cc2nccn12` [Example 711, 7-(3-isopropyl-5-(1-(oxetan-3-yl)piperidin-4-yl)-1H-indol-2-yl)-5-methylimidazo[1,2-a]pyridine], the IC50 against human TLR7 was 100 to 1000 nM; at human TLR8 it was 100 to 1000 nM; against human TLR9, 1000 to 50000 nM.

For the molecule `COc1cc(-c2[nH]c3ccc(C4CCN(C5COC5)CC4)cc3c2C(C)C)cc2nccn12` [Example 712, 7-(3-isopropyl-5-(1-(oxetan-3-yl)piperidin-4-yl)-1H-indol-2-yl)-5-methoxyimidazo[1,2-a]pyridine], the IC50 against human TLR7, against human TLR8 and against human TLR9 was 100 to 1000 nM each time.
